Source: patent US20100311827A1, “Chlorogenic acid derivatives and their use as anti-fungal agents” (priority 2006, published 2010)
≈ marks a conversion by molar mass, not a printed value.

Columns and labels:
[1] = tested on: Aspergillus fumigatus (ATCC13073); experiment: Broth dilution anti-fungal susceptibility of filamentous fungi (NCCLS M38-A), MIC; type: cell-based; conditions: Table 1, MICs read at 80% inhibition, 35° C., 48 hours, tested 0.12 to 64 μg/ml
Procedure: (§1) The anti-fungal activity of the compounds according to the invention were evaluated against Candida albicans (ATCC90028), Cryptococcus neoformans (ATCC32045), and Aspergillus fumigatus (ATCC13073) according to NCCLS guidelines (NCCLS reference method for broth dilution anti-fungal susceptibility testing of yeasts; approved standard-second edition, M27-A2, National Committee for Clinical Laboratory Standards, Villanova, Pa. 2003; and NCCLS reference method for broth dilution anti-fungal susceptibility testing of filamentous fungi; approved standard, M38-A, National Committee for Clinical Laboratory Standards, Villanova, Pa. 2002).
(§2) The medium required for the evaluation of anti-fungal activity was prepared as follows. RPMI 1640 broth+MOPS, pH adjusted and filter sterilized. Sabouraud Dextrose Agar (SDA) plates were used for growing fungi.
(§3) All test or candidate compounds were prepared as 5 mg/ml stock solutions in DMSO and further diluted according to the NCCLS guidelines with sterile water or appropriate diluent. A working stock of 256 μg/ml was used to prepare 1:2 serial dilutions in 96-well plates.
(§4) The inoculums of fungi were prepared by making a direct sterile water suspension of colonies/spores from SDA plates. 0.1% Tween 20 was used for A. fumigatus for better dispersal of spores in suspension. For C. albicans and C. neoformans overnight cultures were used. A. fumigatus required longer incubation. Each fungal suspension was adjusted to read between 70 and 75% transmittance at 530 nm (0.5 McFarland Standard). These suspensions were further diluted 1/1000 in appropriate broth for inoculating the 96-well plates.
(§5) All plates were incubated at 35° C. for the following times: 18 hours to 24 hours for C. albicans, 48 hours for A. fumigatus, and 48 to 72 hours for C. neoformans.

[2] = tested on: brine shrimp; type: in vivo; conditions: at 100 μg/ml
Procedure: The general in vitro toxicity of these compounds can be tested using the Brine Shrimp Lethality assay, as described in Mclaughlin, J. L. in Methods in Plant Biochemistry. Ed. K. Hostettmann, Academic Press, London, 1991; Vol. 6, pp. 1-32. Typically, candidate compounds are diluted in seawater to a suitable concentration and added to second instar larvae of Artemia salina. After a suitable period of time, for example 24 hours, the survivors are counted. In vitro acute toxicity testing of a compound of Formula I can also be performed using mammalian cell lines (see, for example, Ekwall, B., Ann. N.Y. Acad. Sci., (1983) 407:64-77). Selection of an appropriate cell line is dependent on the potential application of the candidate compound and can be readily determined by one skilled in the art.
To test the general toxicity of these compounds, Brine Shrimp Lethality assay was carried out according to Mclaughlin, J. L. in Methods in Plant Biochemistry. Ed. K. Hostettmann, Academic Press, London, 1991; Vol. 6, pp. 1-32. The compounds were tested at 100 μg/ml.

[3] = tested on: Cryptococcus neoformans (ATCC32045); experiment: Broth dilution anti-fungal susceptibility (NCCLS M27-A2), MIC; type: cell-based; conditions: Table 1, MICs read at 80% inhibition, 35° C., 48 to 72 hours, tested 0.12 to 64 μg/ml
Procedure: as §1, §2, §3, §4, §5

[4] = tested on: Candida albicans (ATCC90028); experiment: as above; type: cell-based; conditions: MICs read at 80% inhibition; for MIC: Candida albicans, ATCC90028, Table 1, 35° C., 18 to 24 hours, tested 0.12 to 64 μg/ml
Procedure: as §1, §2, §3, §4, §5

[5] = tested on: Candida krusei ATCC6258; experiment: Broth dilution anti-fungal susceptibility, MIC (as in Example 24); type: cell-based; conditions: Table 3 (Example 26); MICs read at 80% inhibition; 0.12 to 64 μg/ml

SMILES	MIC [1] [µg/mL]	% BL (brine shrimp lethality) [2] [%]	MIC [3] [µg/mL]	MIC [4] [µg/mL]	MIC C. krusei [5] [µg/mL]	MIC C. albicans ([4]; Table 3 (Example 26, additional testing), 0.12 to 64 μg/ml) [µg/mL]
CCCCCCCCOc1ccc(NC(=O)C(CCCN)NC(=O)C2(O)CC(O)C(O)C(OC(=O)/C=C/c3ccc(O)c(O)c3)C2)cc1 (centres unmarked) [Compound 14]	16 (≈ 23.8 µM)	37.5	1 (≈ 1.49 µM)	4 (≈ 5.95 µM)	–	–
CCCCCCCCOc1ccc(NC(=O)C(CCCNC(=O)OC(C)(C)C)NC(=O)C2(O)CC(OC(=O)C(CCc3ccc(O)cc3)NC(=O)OCC3c4ccccc4-c4ccccc43)C3OC(C)(C)OC3C2)cc1 (centres unmarked) [Compound 20]	> 64	10.5	> 64	> 64	–	–
CCCCCCCCOc1ccc(NC(=O)C(CCCN)NC(=O)C2(O)CC(O)C(O)C(OC(=O)C(N)CCc3ccc(O)cc3)C2)cc1 (centres unmarked) [Compound 23]	> 64	73.7	2 (≈ 2.91 µM)	64 (≈ 93.2 µM)	–	–
CCCCCCCCOc1ccc(NC(=O)C(COC(C)(C)C)NC(=O)C2(O)CC(O)C(O)C(OC(=O)/C=C/c3ccc(O)c(O)c3)C2)cc1 (centres unmarked) [Compound 7]	> 64	31.1	2 (≈ 2.85 µM)	4 (≈ 5.71 µM)	–	–
CCCCCCCCOc1ccc(NC(=O)C(CCCNC(=O)OC(C)(C)C)NC(=O)C2(O)CC(O)C(O)C(OC(=O)/C=C/c3ccc(O)c(O)c3)C2)cc1 (centres unmarked) [Compound 10]	> 64	25.0	1 (≈ 1.3 µM)	2 (≈ 2.59 µM)	–	–
CCCCCCCCOc1ccc(NC(=O)C(CC(=O)OC(C)(C)C)NC(=O)C2(O)CC(O)C(O)C(OC(=O)/C=C/c3ccc(O)c(O)c3)C2)cc1 (centres unmarked) [Compound 9]	> 64	37.5	2 (≈ 2.74 µM)	2 (≈ 2.74 µM)	–	–
CCCCCCCCOc1ccc(NC(=O)C(CO)NC(=O)C2(O)CC(O)C(O)C(OC(=O)/C=C/c3ccc(O)c(O)c3)C2)cc1 (centres unmarked) [Compound 11]	> 64	18.8	4 (≈ 6.2 µM)	> 64	–	–
CCCCCCCCOc1ccc(NC(=O)C(NC(=O)C2(O)CC(OC(=O)/C=C/c3ccc(O)c(O)c3)C3OC(C)(C)OC3C2)C(C)OC(C)(C)C)cc1 (centres unmarked) [Compound 4]	> 64	6.2	4 (≈ 5.3 µM)	32 (≈ 42.4 µM)	–	–
CCCCCCCCOc1ccc(NC(=O)C(CCCNC(=O)OC(C)(C)C)NC(=O)C2(O)CC(OC(=O)C(N)CCc3ccc(O)cc3)C3OC(C)(C)OC3C2)cc1 (centres unmarked) [Compound 21]	> 64	47.7	> 64	> 64	–	–
CCCCCCCCOc1ccc(NC(=O)C(CCCNC(=O)OC(C)(C)C)NC(=O)C2(O)CC(O)C(O)C(OC(=O)/C=C/c3ccc(O)cc3)C2)cc1 (centres unmarked) [Compound 18]	> 64	31.6	> 64	> 64	–	–
CCCCCCCCOc1ccc(NC(=O)C(CCCNC(=O)OC(C)(C)C)NC(=O)C2(O)CC(O)C(O)C(OC(=O)C(N)CCc3ccc(O)cc3)C2)cc1 (centres unmarked) [Compound 22]	> 64	36.8	4 (≈ 5.08 µM)	> 64	–	–
CCCCCCCCOc1ccc(NC(=O)C(CCCNC(=O)OC(C)(C)C)NC(=O)C2(O)CC(OC(=O)/C=C/c3ccc(O)cc3)C3OC(C)(C)OC3C2)cc1 (centres unmarked) [Compound 17]	> 64	0.0	> 64	> 64	–	–
CCCCCCCCOc1ccc(NC(=O)C2(O)CC(O)C(O)C(OC(=O)/C=C/c3ccc(O)c(O)c3)C2)cc1 (centres unmarked) [Compound 2]	> 64	50.0	2 (≈ 3.59 µM)	8 (≈ 14.3 µM)	–	–
OC(Cn1cncn1)(Cn1cncn1)c1ccc(F)cc1F [Fluconazole, reference compound]	> 64	–	0.5 (≈ 1.63 µM)	0.25 (≈ 0.816 µM)	–	–
CCCCCCCCOc1ccc(NC(=O)C(CC(=O)O)NC(=O)C2(O)CC(O)C(O)C(OC(=O)/C=C/c3ccc(O)c(O)c3)C2)cc1 (centres unmarked) [Compound 13]	> 64	6.3	16 (≈ 23.8 µM)	64 (≈ 95.1 µM)	–	–
CCCCCCCCOc1ccc(NC(=O)C(CCCNC(=O)OC(C)(C)C)NC(=O)C2(O)CC(O)C(O)C(OC(=O)CCc3ccc(O)c(O)c3)C2)cc1 (centres unmarked) [Compound 15]	> 64	21.1	4 (≈ 5.17 µM)	> 64	–	–
CCCCCCCCOc1ccc(NC(=O)C(CCCNC(=O)OC(C)(C)C)NC(=O)C2(O)CC(OC(=O)/C=C/c3ccc(O)c(O)c3)C3OC(C)(C)OC3C2)cc1 (centres unmarked) [Compound 6]	> 64	12.5	2 (≈ 2.46 µM)	> 64	–	–
C[C@@H]1[C@H](O)[C@@H](C)/C=C/C=C/C=C/C=C/C=C/C=C/C=C/[C@H](O[C@@H]2O[C@H](C)[C@@H](O)[C@H](N)[C@@H]2O)C[C@@H]2O[C@](O)(C[C@@H](O)C[C@@H](O)[C@H](O)CC[C@@H](O)C[C@@H](O)CC(=O)O[C@H]1C)C[C@H](O)[C@H]2C(=O)O [Amphotericin B, reference compound]	–	–	–	–	1 (≈ 1.08 µM)	0.5 (≈ 0.541 µM)
CCCCCCCCOc1ccc(NC(=O)C(CCCN)NC(=O)C2(O)CC(O)C(O)C(OC(=O)/C=C/c3ccc(O)cc3)C2)cc1 (centres unmarked) [Compound 19]	32 (≈ 48.8 µM)	100	4 (≈ 6.1 µM)	8 (≈ 12.2 µM)	–	–
CCCCCCCCOc1ccc(NC(=O)C(CCCN)NC(=O)C2(O)CC(O)C(O)C(OC(=O)CCc3ccc(O)c(O)c3)C2)cc1 (centres unmarked) [Compound 16]	64 (≈ 95 µM)	10.5	8 (≈ 11.9 µM)	16 (≈ 23.7 µM)	–	–
CCCCCCCCOc1ccc(NC(=O)C2(O)CC(OC(=O)/C=C/c3ccc(O)c(O)c3)C3OC(C)(C)OC3C2)cc1 (centres unmarked) [Compound 1]	> 64	100.0	2 (≈ 3.35 µM)	16 (≈ 26.8 µM)	–	–
CCCCCCCCOc1ccc(NC(=O)C(CC(=O)OC(C)(C)C)NC(=O)C2(O)CC(OC(=O)/C=C/c3ccc(O)c(O)c3)C3OC(C)(C)OC3C2)cc1 (centres unmarked) [Compound 5]	> 64	56.2	2 (≈ 2.6 µM)	> 64	–	–
CCCCCCCCOc1ccc(NC(=O)C(COC(C)(C)C)NC(=O)C2(O)CC(OC(=O)/C=C/c3ccc(O)c(O)c3)C3OC(C)(C)OC3C2)cc1 (centres unmarked) [Compound 3]	> 64	31.3	2 (≈ 2.7 µM)	32 (≈ 43.2 µM)	–	–
